In patent publication US6436984B1, “Melatonin derivatives and medicine containing same” (Centre National de la Recherche Scientifique (CNRS), priority 1998, dated 2002):

Test system: P 815 line
Assay: cell proliferation of the P 815 line (tritiated thymidine incorporation)
Type: cell-based
Conditions: P 815 cells, 7 hours incubation in RPMI medium with phenol red, tritiated thymidine added after 3 hours, radioactivity associated with the DNA
Experimental: The biological activity of the derivative of formula I was compared with dipropylenetriamine NONOate (A), melatonin (B) and a dipropylenetriamine NONOate and melatonin (1/2) mixture (C) on the cell preparation of the cell proliferation of the P 815 line.
The cells are incubated with the products in RPMI medium with phenol red for 7 hours. Tritiated thymidine is added after incubating for 3 hours.
The results are shown on the curve in the single appended FIGURE, where the concentration of product (μM) is carried on the abscissa and the radioactivity associated with the DNA (cpm) is carried on the ordinate.

Row | SMILES | IC50 (Mus musculus, P815) [µM] | IC50 [µM]
1 | COc1ccc2c(c1)c(CCNC(C)=O)cn2N=O [compound of formula I, N1-nitrosomelatonin] | 280 | –
2 | NCCCN(CCCN)/[N+]([O-])=N/O [dipropylenetriamine NONOate (A), dipropylenetriamine NONOate] | – | 150
